Measured values as given in US12570615B2, “Quinazolinone derivatives” (Hoffmann-La Roche Inc., priority 2021, dated 2026).
Structures can show the parent of a compound that is named as a salt.

How the values were obtained:
[1] = molecular target: BRAF (V600E) (Homo sapiens, UniProt P15056, V600E); assay: KD BRAF (V600E) (Table 1); type: binding
[2] = tested on: P-ERK (ERK phospho-T202/Y204) in HCT116 cells expressing WT BRAF; assay: HTRF assay for P-ERK determination in HCT116 cells (BRAF activation); type: cell-based; settings: Homo sapiens, HCT-116, drug incubation 1 hour, concentration giving 50% of the maximum activation achieved by Dabrafenib
Text: (§1) A375 is a cellular cancer model expressing V600E mutated BRAF and HCT116 a cellular cancer model expressing WT BRAF. First generation BRAF inhibitors such as e.g. dabrafenib induce a paradox effect on tumour cells in that they inhibit the growth of V600E mutated BRAF cells (such as e.g. A375), while they activate growth in WT BRAF cells (such as e.g. HCT 116). ERK 1,2 phosphorylation (terminal member of the phosphorylation cascade of the MAPK pathway) is hereafter reported as main readout for the activation status of the MAPK pathway. DMEM no-phenol red medium supplemented with L-glutamine was purchased from (Thermo Fisher Scientific). Fetal bovine serum (FBS) was purchased from VWR. Advanced ERK phospho-T202/Y204 kit—10,000 tests was purchased from Cisbio cat #64AERPEH. A375 (catalog #CRL-1619) and HCT116 (catalog #CCL-247) cells were originally obtained from American type Culture Collection (ATCC) and banked by the Roche repository. 384-Well microplates utilized were purchased from Greiner Bio-One, 384-well, (With Lid, HiBase, Low volume cat 784-080).
(§2) Prior to the assay, A375 and HCT116 cell lines are maintained in DMEM no-phenol red medium supplemented with 10% fetal bovine serum (FBS). Following compound treatment, P-ERK levels are determined by measuring FRET fluorescence signal induced by selective binding of 2 antibodies provided in the mentioned kit (Cisbio cat #64AERPEH) on ERK protein when phosphorylated at Thr202/Tyr204. Briefly, 8000 cells/well in 12 μl media/well are plated in the 384-well plate and left overnight in the incubator (at 37° C. with 5% CO2-humidified atmosphere), the following day the plate is treated in duplicate with test compounds, dabrafenib and PLX8394 (the latter two as controls) at the following final drug concentrations: 10 μM-3 μM 1 μM-0.3 μM-0.1 μM-0.03 μM-0, 01 μM-0.003 μM-0.001 μM, all wells are subjected to DMSO normalization and drug incubation occurs for 1 hour. Then, […] of a 4× lysis buffer supplied with the kit are added to the wells, the plate is then centrifuged for 30 second (3000 rpm) and incubated on a plate shaker for 1 h at rt.
(§3) At the end of the incubation 4 μL/well of advanced P-ERK antibody solution (prepared according to manufacturer's instruction) followed by 4 μL/well of criptate P-ERK antibody solution (prepared according to manufacturer's instruction) (Cisbio cat #64AERPEH) are added to test wells.
(§4) In order to allow proper data normalization control wells non drug treated reported in the following table are always included in each plate (according to manufacturer's instruction):
(§5) The plate is then centrifuged at 3000 rpm for 30 second, sealed to prevent evaporation and incubated overnight in the dark at room temperature.
(§6) The plate is then analyzed and fluorescence emission value collected through a Pherastast FSX (BMG Labtech) apparatus at […].
(§7) The obtained fluorescence values are processed according to the formula Ratio=[…]*10000 then the average of the ratio on the blank is subtracted to all values.
Data are normalized in the case of HCT116 cells (BRAF activation) considering the average of the ratio (blank subtracted) derived by DMSO only treated cells as 0% and by considering the average of the ratio (blank subtracted) derived by Dabrafenib treated cells at the concentration which provides the highest signal as 100%. Individual points are fitted with either sigmoidal or bell shape curves. The EC50 is the concentration at which activation equal to 50% of the maximum activation achieved by Dabrafenib is obtained.

[3] = molecular target: BRAF (wt) (Homo sapiens, UniProt P15056); assay: KD BRAF (wt) (Table 1); type: binding
[4] = tested on: P-ERK (ERK phospho-T202/Y204) in A375 cells expressing V600E mutated BRAF; assay: HTRF assay for P-ERK determination in A375 cells (BRAF inhibition); type: cell-based; settings: Homo sapiens, A-375, P-ERK level, drug incubation 1 hour, DMSO = 100%, 10 μM Dabrafenib = 0%
Text: as §1, §2, §3, §4, §5, §6, §7
Data are normalized in the case of A375 cells (BRAF inhibition) considering the average of the ratio (blank subtracted) derived by DMSO only treated cells as 100% and by considering the average of the ratio (blank subtracted) derived by 10 μM Dabrafenib treated cells as 0%. Mean of the normalized points are fitted with sigmoidal curve and IC50 determined.

BRAF (wt), sequence (P15056 whole entry): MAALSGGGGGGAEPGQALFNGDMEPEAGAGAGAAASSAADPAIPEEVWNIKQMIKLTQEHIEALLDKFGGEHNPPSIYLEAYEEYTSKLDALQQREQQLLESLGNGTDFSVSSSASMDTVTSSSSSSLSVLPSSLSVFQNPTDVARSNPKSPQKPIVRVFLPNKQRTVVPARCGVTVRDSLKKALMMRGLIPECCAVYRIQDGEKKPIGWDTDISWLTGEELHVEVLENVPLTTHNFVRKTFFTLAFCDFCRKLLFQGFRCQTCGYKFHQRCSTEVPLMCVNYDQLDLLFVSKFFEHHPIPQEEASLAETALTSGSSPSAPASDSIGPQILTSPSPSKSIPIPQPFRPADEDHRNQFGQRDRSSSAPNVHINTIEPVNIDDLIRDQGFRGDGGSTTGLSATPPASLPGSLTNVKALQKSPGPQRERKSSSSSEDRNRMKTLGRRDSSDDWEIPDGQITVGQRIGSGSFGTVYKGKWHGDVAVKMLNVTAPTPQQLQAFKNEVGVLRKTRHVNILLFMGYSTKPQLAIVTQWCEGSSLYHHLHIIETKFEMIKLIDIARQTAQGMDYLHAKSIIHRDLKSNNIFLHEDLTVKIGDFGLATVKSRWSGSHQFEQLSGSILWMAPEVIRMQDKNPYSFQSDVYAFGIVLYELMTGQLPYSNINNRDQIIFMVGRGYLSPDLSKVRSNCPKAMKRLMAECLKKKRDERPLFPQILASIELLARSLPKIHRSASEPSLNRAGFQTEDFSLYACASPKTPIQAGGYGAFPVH
BRAF (V600E), sequence (P15056 whole entry V600E): as the sequence (P15056 whole entry) above, with V600E counted along it

Row | Compound | Kd [1] [nM] | EC50 [2] [nM] | Kd [3] [nM] | IC50 [4] [nM]
1 | CC(C)(C)OC(=O)CCCn1cnc2ccc(Nc3cccc(NS(=O)(=O)N4CC[C@@H](F)C4)c3C#N)cc2c1=O [Example 35, tert-butyl 4-[6-[2-cyano-3-[[(3R)-3-fluoropyrrolidin-1-yl]sulfonylamino]anilino]-4-oxo-quinazolin-3-yl]butanoate] | 20.9 | 7220 | 7.92 | 12.9
2 | N#Cc1c(Nc2ccc3ncn(CCOCc4ccccc4)c(=O)c3c2)cccc1NS(=O)(=O)N1CC[C@@H](F)C1 [Example 36, (3R)—N-[3-[[3-(2-benzyloxyethyl)-4-oxo-quinazolin-6-yl]amino]-2-cyano-phenyl]-3-fluoro-pyrrolidine-1-sulfonamide] | 273 | ≥ 10000 | 131 | 114
3 | CC(C)(C)OC(=O)N1CCC(CCn2cnc3ccc(Nc4cccc(NS(=O)(=O)N5CC[C@@H](F)C5)c4C#N)cc3c2=O)CC1 [Example 37, tert-butyl 4-[2-[6-[2-cyano-3-[[(3R)-3-fluoropyrrolidin-1-yl]sulfonylamino]anilino]-4-oxo-quinazolin-3-yl]ethyl]piperidine-1-carboxylate] | 43.7 | 4470 | 20.8 | 80.6
4 | CCN(C)S(=O)(=O)Nc1cccc(Nc2ccc3ncn(CCOCCOCCN)c(=O)c3c2)c1C#N [Example 38, 3-[2-[2-(2-aminoethoxy)ethoxy]ethyl]-6-[2-cyano-3-[[ethyl(methyl)sulfamoyl]amino]anilino]-4-oxo-quinazoline hydrochloride] | 443 | ≥ 10000 | 174 | 5740
5 | N#Cc1c(Nc2ccc3ncn(CCCC(=O)O)c(=O)c3c2)cccc1NS(=O)(=O)N1CC[C@@H](F)C1 [Example 39, 4-[6-[2-cyano-3-[[(3R)-3-fluoropyrrolidin-1-yl]sulfonylamino]anilino]-4-oxo-quinazolin-3-yl]butanoic acid] | 48.3 | ≥ 10000 | 11.6 | ≥ 10000
6 | CN(C1CC1)S(=O)(=O)Nc1cccc(Nc2ccc3ncn(CCCC(=O)OC(C)(C)C)c(=O)c3c2)c1C#N [Example 42, tert-butyl 4-[6-[2-cyano-3-[[cyclopropyl(methyl)sulfamoyl]amino]anilino]-4-oxo-quinazolin-3-yl]butanoate] | 203 | 6200 | 79.2 | 162
7 | N#Cc1c(Nc2ccc3ncn(CCCc4ccccc4)c(=O)c3c2)cccc1NS(=O)(=O)N1CC[C@@H](F)C1 [Example 44, (3R)—N-[2-cyano-3-[[4-oxo-3-(3-phenylpropyl)quinazolin-6-yl]amino]phenyl]-3-fluoro-pyrrolidine-1-sulfonamide] | 25.6 | 2070 | 15.1 | 18.2
8 | CC(C)(C)OC(=O)N1CCC(CCn2cnc3ccc(Nc4cccc(NS(=O)(=O)N5CCCC5)c4C#N)cc3c2=O)CC1 [Example 46, tert-butyl 4-[2-[6-[2-cyano-3-(pyrrolidin-1-ylsulfonylamino)anilino]-4-oxo-quinazolin-3-yl]ethyl]piperidine-1-carboxylate] | 73.5 | 2540 | 21.2 | 20.6

Now those with a lower Kd [1], led by results:

Row | Kd [1] [nM] | EC50 [2] [nM] | Kd [3] [nM] | IC50 [4] [nM] | Compound
9 | 7.88 | ≥ 10000 | 3.71 | 334 | CC(C)(C)OC(=O)N1CCN(C(=O)CCCn2cnc3ccc(Nc4cccc(NS(=O)(=O)N5CC[C@@H](F)C5)c4C#N)cc3c2=O)CC1 [Example 40, tert-butyl 4-[4-[6-[2-cyano-3-[[(3R)-3-fluoropyrrolidin-1-yl]sulfonylamino]anilino]-4-oxo-quinazolin-3-yl]butanoyl]piperazine-1-carboxylate]
10 | 9.29 | ≥ 10000 | 6.19 | 1510 | CC(C)(C)OC(=O)N1CCC(NC(=O)CCCn2cnc3ccc(Nc4cccc(NS(=O)(=O)N5CC[C@@H](F)C5)c4C#N)cc3c2=O)CC1 [Example 41]
11 | 7.18 | 5610 | 4.47 | 74.6 | CC(C)(C)OC(=O)NCCCn1cnc2ccc(Nc3cccc(NS(=O)(=O)N4CC[C@@H](F)C4)c3C#N)cc2c1=O [Example 43, tert-butyl N-[3-[6-[2-cyano-3-[[(3R)-3-fluoropyrrolidin-1-yl]sulfonylamino]anilino]-4-oxo-quinazolin-3-yl]propyl]carbamate]
12 | 8.34 | ≥ 10000 | 3.41 | 814 | CN(CCNC(=O)CCCn1cnc2ccc(Nc3cccc(NS(=O)(=O)N4CC[C@@H](F)C4)c3C#N)cc2c1=O)C(=O)OC(C)(C)C [Example 45, tert-butyl N-[2-[4-[6-[2-cyano-3-[[(3R)-3-fluoropyrrolidin-1-yl]sulfonylamino]anilino]-4-oxo-quinazolin-3-yl]butanoylamino]ethyl]-N-methyl-carbamate]
